According to US6723525B2, “Methods and compositions for screening modulators of lipid kinases” (Warner-Lambert Company, priority 2000, dated 2004):

Experiments:
[1] = molecular target: T1, human sphingosine kinase (huSPHK1) (Homo sapiens, UniProt Q9NYA1); assay: Sphingosine kinase activity scintillation proximity assay (SPA) with extracts of transfected CHO or COS-7 cells; type: biochemical; settings: FIG. 4B; read-out: ATP KM
T1 construct: made in house; host or cells: CHO and/or COS-7 cells, transiently transfected; raw cell extract after thaw/freeze cycles
Method: CHO and/or COS-7 cells were cultured in 90% Ham F12 medium, 10% foetal bovine serum, Gentamycin, in T-175 tissue culture flasks in air with 5% CO2 atmosphere at 37° C. CHO and/or COS-7 cells were transiently transfected with the vector pcDNA3 alone or vector containing the human sphingosine kinase cDNA, using the Qiagen reagent Superfect. They were seeded 5×10^6 per 175 cm^2 flask. After 24 hrs, cells were transfected with 10 μg of cDNA mixed with 20 μl Superfect for 6 hrs, washed, and cultured for 2 days in complete Ham medium. They were then trypsinized, centrifuged down at 1500 rpm for 10 min, and resuspended in assay buffer. They underwent 3 thaw/freeze cycles and protein concentration were estimated using the Bradfaord technique (Biorad kit). The protein concentration was adjusted to 1 μg/μl, and aliquots were kept frozen at −20° C. […]
100 μL/well of SPA beads emulsion (corresponding to 0.5 mg/well beads). The plate is covered with a transparent Topseal (Packard), stirred for 1 hour at 800 rpm and counted on a Wallac Trilux. […]
Taking advantage of the property of these supports, a two-steps assay was set up (see FIG. 1). […] The beads settle down for an hour, and the plate is read on a scintillation counter.
Optimization of assay conditions need also the determination of adequate quantities of ATP, sphingosine, and enzyme concentration. […]

[2] = molecular target: sphingosine kinases (SPHKs) (Homo sapiens, UniProt Q9NYA1); settings: cited from earlier work
Sequence of sphingosine kinases (SPHKs) (Q9NYA1 whole entry): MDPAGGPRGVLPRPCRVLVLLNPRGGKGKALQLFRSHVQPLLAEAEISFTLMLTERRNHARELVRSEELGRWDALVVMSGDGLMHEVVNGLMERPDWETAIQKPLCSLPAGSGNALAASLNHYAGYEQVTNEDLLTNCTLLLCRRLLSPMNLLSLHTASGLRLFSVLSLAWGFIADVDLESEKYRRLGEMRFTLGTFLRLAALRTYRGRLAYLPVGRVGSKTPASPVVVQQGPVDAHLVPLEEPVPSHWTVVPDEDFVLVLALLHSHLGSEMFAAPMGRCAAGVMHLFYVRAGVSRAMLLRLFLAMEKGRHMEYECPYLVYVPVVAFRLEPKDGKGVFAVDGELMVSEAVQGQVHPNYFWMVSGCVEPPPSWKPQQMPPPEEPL

T1 sequence (Q9NYA1 whole entry): as above

With `Nc1ncnc2c1ncn2[C@@H]1O[C@H](COP(=O)(O)OP(=O)(O)OP(=O)(O)O)[C@@H](O)[C@H]1O` [ATP] the Km [1] was about 30 µM.

For `CCCCCCCCCCCCC/C=C/[C@@H](O)[C@@H](N)CO` [Sphingosine], the Km [2] is listed as 5 µM.
